# Results taken from patent US9724391B2, “Combination preparation including a corticosteroid and exosomes” (ORTHOGEN AG, priority 2009, dated 2017).
# What was measured:
# [1] = test system: patient with severe Bechterew arthritis; test: Case X: severe Bechterew arthritis, injection into the affected joints; format: in vivo, human; conditions: total dose 40 mg into all affected joints; for 1 week
# Description: Case X • Severe Bechterew arthritis with iridocyclitis left eye. Patient is given prednisolone and MTX in changing doses as basic therapy. CRP 20_3 mg/l; left CFJ clearly swollen with +2 cm compared to the other side; left MCP and first knuckle 1st finger left clearly swollen and painful, right shoulder swollen, painful, abduction reduced by 30 degrees compared to normal. […] CRP within 1 week reduced from 20.3 mg/l to 2.9 mg/l.
# [2] = test system: patient with severe neurodermitis; test: Case IX: severe neurodermitis, intramuscular application; format: in vivo, human; conditions: systemic intramuscular application, doses of 80 mg
# Description: FIG. 1A to FIG. 1C show pictures of the feet of a neurodermitis patient whose case is described below as case IX (Example 4).
# Case IX: • Severe dermatologically verified neurodermitis with strong changes, especially in the area of hands and feet. […] After that, attempt of intramuscular application of 2 ml of exosomes in connection with 20 mg triamcinolone. […] Subsequent slight deterioration but still improvement compared to preliminary findings. FIG. 1A describes the dermatological changes at both feet immediately before treatment, FIG. 1B and FIG. 1C one week after treatment for the right/left foot.
# [3] = test system: patient with severe therapy-resistant rheumatoid arthritis; conditions: after one week; triamcinolone alone 10 mg to 40 mg intraarticular, combination with total 20 mg triamcinolone
# Description: Injection of exosomes (after incubation with IL-1Ra) and admixing total amount of 20 mg triamcinolone in MCP2-5 ab. and both shoulders.
# [4] = test system: patient with gonarthrosis ri, cartilage defects degree 2-4 according to Outerbridge; test: Case VIII: gonarthrosis ri, intraarticular injection into the right knee; format: in vivo, human; conditions: triamcinolone 10-40 mg intraarticular (history); exosomes one-time intraarticular, after 4 weeks
# Description: Case VIII: • Gonarthrosis ri with cartilage defects verified arthroscopically degree 2-4 according to Outerbridge. The patient wishes to delay surgery and joint replacement. History of intraarticular injection of triamcinolone in doses of 10-40 mg to no effect. Injection of 1 ml of exosomes prepared by means of the technique as described after incubation with IL-1Ra. […] Afterwards decision for an intraarticular injection into the right knee combined with 10 mg triamcinolone.
# osteoarthritis = conditions: in vivo; cited from earlier work
# [5] = test system: patient with complete alopecia; conditions: systemic and local application, high doses (10-80 mg prednisolone)
# [6] = test system: patient with psoriasic arthritis; conditions: cortisone 20-40 mg intraarticular, effect for some days; combination after a few days
# [7] = test system: patient with partial rotator cuff rupture and complete shoulder stiffness le; conditions: before combination therapy
# Description: Surgery appointment for the left shoulder was made. Here it should be tried to avoid surgery. […] 2 ml Orthokine were administered into the shoulder with 10 mg Anakinra and 10 mg triamcinolone via a syringe. […] The therapy was continued until day 4.
compound,measurement,setting,value
C[C@]12C=CC(=O)C=C1CC[C@H]1[C@@H]3C[C@@H](O)[C@](O)(C(=O)CO)[C@@]3(C)C[C@H](O)[C@@]12F [triamcinolone],improvement,[1],20%
same,duration of short-term effect,[2],1 week
same,pain improvement / pain reduction,[3],20%
same,clinical effect regarding pain and function of single agents,[4],to no effect
C[C@]12C=CC(=O)C=C1CC[C@@H]1[C@@H]2[C@@H](O)C[C@@]2(C)[C@H]1CC[C@]2(O)C(=O)CO [prednisolone],duration of short-term effect,[2],1 week
"Anakinra: recombinant human IL-1 receptor antagonist, amino acids 26-177, terminally L-methionylated, 153 amino acids",effects in the treatment of osteoarthritis compared to a placebo treatment,osteoarthritis,did not show any effects
C[C@]12CCC(=O)C=C1CC[C@@H]1[C@@H]2C(=O)C[C@@]2(C)[C@H]1CC[C@]2(O)C(=O)CO [cortisone],effect of earlier therapy attempts on alopecia,[5],without effect
same,pain reduction,[6],10-30%
same,outcome of numerous earlier injections into the left shoulder,[7],without success
